Measured values published in ChEMBL document CHEMBL3826884, “Synthesis and biological evaluation of 3-substituted 5-benzylidene-1-methyl-2-thiohydantoins as potent NADPH oxidase (NOX) inhibitors” (Bioorg Med Chem, 2016).

Legend:
[1] = target: T1, NADPH oxidase 4 (Homo sapiens, UniProt Q9NPH5); experiment: Inhibition of human NOX4 expressed in Drosophila DUOX knockdown model assessed as decrease in ROS production by lucigenin chemiluminescence assay
T1 sequence (Q9NPH5 whole entry): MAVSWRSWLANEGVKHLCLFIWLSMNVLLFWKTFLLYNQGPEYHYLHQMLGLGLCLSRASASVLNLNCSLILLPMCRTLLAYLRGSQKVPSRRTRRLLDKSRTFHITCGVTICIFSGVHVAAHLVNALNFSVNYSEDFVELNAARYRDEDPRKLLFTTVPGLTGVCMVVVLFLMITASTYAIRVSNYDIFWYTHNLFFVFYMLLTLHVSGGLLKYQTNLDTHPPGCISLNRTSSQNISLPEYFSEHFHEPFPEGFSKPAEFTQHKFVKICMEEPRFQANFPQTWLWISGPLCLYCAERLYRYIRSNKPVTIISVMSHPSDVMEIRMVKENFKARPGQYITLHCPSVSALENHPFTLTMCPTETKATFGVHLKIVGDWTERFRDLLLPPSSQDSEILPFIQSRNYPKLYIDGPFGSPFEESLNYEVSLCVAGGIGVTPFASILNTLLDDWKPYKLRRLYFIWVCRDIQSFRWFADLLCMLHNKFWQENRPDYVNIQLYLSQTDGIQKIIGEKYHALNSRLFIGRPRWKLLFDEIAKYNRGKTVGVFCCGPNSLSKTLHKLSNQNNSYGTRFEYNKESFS

[2] = target: T2, NADPH oxidase 1 (Homo sapiens, UniProt Q9Y5S8); experiment: Inhibition of human NOX1 expressed in Drosophila DUOX knockdown model assessed as decrease in ROS production by lucigenin chemiluminescence assay
T2 sequence (Q9Y5S8 whole entry): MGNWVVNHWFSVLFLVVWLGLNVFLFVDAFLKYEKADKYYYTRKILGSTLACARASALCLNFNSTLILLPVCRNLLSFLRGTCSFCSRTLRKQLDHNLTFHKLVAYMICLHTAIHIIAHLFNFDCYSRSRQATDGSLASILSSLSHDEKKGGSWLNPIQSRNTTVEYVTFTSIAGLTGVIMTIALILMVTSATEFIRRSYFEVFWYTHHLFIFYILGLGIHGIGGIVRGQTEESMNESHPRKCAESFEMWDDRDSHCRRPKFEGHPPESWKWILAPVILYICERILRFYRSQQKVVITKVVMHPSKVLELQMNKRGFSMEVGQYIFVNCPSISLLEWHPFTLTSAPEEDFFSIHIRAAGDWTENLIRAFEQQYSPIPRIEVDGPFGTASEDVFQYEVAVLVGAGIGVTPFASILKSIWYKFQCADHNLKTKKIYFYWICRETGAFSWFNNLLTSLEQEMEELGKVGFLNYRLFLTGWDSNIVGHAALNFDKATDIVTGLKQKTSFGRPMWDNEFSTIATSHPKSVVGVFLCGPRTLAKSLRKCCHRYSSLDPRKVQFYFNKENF

[3] = organism: Homo sapiens; experiment: Selectivity ratio of Ki for human NOX1 expressed in Drosophila DUOX knockdown model to Ki for human NOX4 expressed in Drosophila DUOX knockdown model

Structure (SMILES) | Ki [1] [µM] | Ki [2] [µM] | Ratio Ki [3]
Cc1ccc(N2C(=O)/C(=C/c3ccc(N(C)C)cc3)N(C)C2=S)cc1 | 2.33 | 1.02 | –
CN1C(=S)N(C2CCCCC2)C(=O)/C1=C/c1cccc(O)c1O | 6.35 | 7.39 | –
CN1C(=S)N(C2CCCCC2)C(=O)/C1=C/c1ccc(N(C)C)cc1 | 35.6 | 12.3 | –
CCc1ccc(N2C(=O)/C(=C/c3ccc(N(C)C)cc3)N(C)C2=S)cc1 | 2.63 | 4.39 | –
CCc1ccc(N2C(=O)/C(=C/c3cccc(O)c3O)N(C)C2=S)cc1 | 26.4 | 27.9 | –
CN1C(=S)N(c2cccc(Cl)c2)C(=O)/C1=C/c1ccc(N(C)C)cc1 | 0.84 | 0.35 | –
CN1C(=S)N(c2ccccc2)C(=O)/C1=C/c1ccc(N(C)C)cc1 | 0.88 | 1.95 | 2.2
CN1C(=S)N(c2ccccc2)C(=O)/C1=C/c1cccc(O)c1O | 24 | 49.7 | –

Continued, values first:

Ki [1] [µM] | Ki [2] [µM] | Ratio Ki [3] | Structure (SMILES)
34.6 | 27.1 | – | Cc1ccc(N2C(=O)/C(=C/c3ccc(O)cc3O)N(C)C2=S)cc1
33.8 | 34.5 | – | CN1C(=S)N(c2cccc(Cl)c2)C(=O)/C1=C/c1ccc(O)cc1O
27.7 | 33.8 | – | CN1C(=S)N(c2ccccc2)C(=O)/C1=C/c1ccc(O)cc1O
2.36 | 6.63 | 2.8 | CN1C(=S)N(c2ccc3c(c2)CCC3)C(=O)/C1=C/c1cccc(O)c1O
37.6 | 26 | – | CN1C(=S)N(C2CCCCC2)C(=O)/C1=C/c1ccc(O)cc1O
13.1 | 8.04 | – | CN1C(=S)N(c2ccc3c(c2)CCC3)C(=O)/C1=C/c1ccc(N(C)C)cc1
9.31 | 7.65 | – | CN1C(=S)N(c2cccc(Cl)c2)C(=O)/C1=C/c1cccc(O)c1O
27 | 50.3 | – | Cc1ccc(N2C(=O)/C(=C/c3cccc(O)c3O)N(C)C2=S)cc1
2.39 | 8.4 | 3.5 | CCc1ccc(N2C(=O)/C(=C/c3ccc(O)cc3O)N(C)C2=S)cc1
6.83 | 6.58 | – | CN1C(=S)N(c2ccc3c(c2)CCC3)C(=O)/C1=C/c1ccc(O)cc1O
